Data reported in ChEMBL document CHEMBL3272235, “alpha-(2-Pyridine)benzyl aryl ketones as potential hypocholesteremic agents” (J Med Chem, 1978).

What was measured:
Rattus norvegicus [1] = assay: Hypocholesteremic activity in Sprague-Dawley rat assessed as change in serum cholesterol level at 25 mg/kg, po administered through intubation tube daily for 7 days measured 24 hrs post last dose relative to vehicle-treated control; assay type: functional
Rattus norvegicus [2] = assay: Estrogenic activity in ovariectomized female Sprague-Dawley rat assessed as change in uterus weight measured as micrograms of […]-estradiol that produce an estrogenic response equivalent to compound at 25 mg/kg, po administered through intubation tube daily for 7 days; assay type: ADME, organism-based; set-up: dose 25 mg/kg, route oral; conditions: in vivo, 168 h

estradiol equivalent (Rattus norvegicus [2]) | SMILES | Activity (Rattus norvegicus [1])
 | COc1ccc(C(=O)C(c2ccccc2)c2ccccn2)cc1Br (configuration not stated) | 11.3%
 | O=C(c1ccccc1)C(c1ccccc1)c1ccccn1 (configuration not stated) | 2.5%
0.87 µg | O=C(c1ccccc1Br)C(c1ccccc1)c1ccccn1 (configuration not stated) | -54.1%
 | O=C(c1cccc(Br)c1)C(c1ccccc1)c1ccccn1 (configuration not stated) | 6.7%
 | O=C(c1ccc(Br)cc1)C(c1ccccc1)c1ccccn1 (configuration not stated) | -22.8%
0.8 µg | O=C(c1ccccc1Cl)C(c1ccccc1)c1ccccn1 (configuration not stated) | -56.9%
 | O=C(c1cccc(Cl)c1)C(c1ccccc1)c1ccccn1 (configuration not stated) | 0%
 | O=C(c1ccc(Cl)cc1)C(c1ccccc1)c1ccccn1 (configuration not stated) | -3.5%
0.45 µg | O=C(c1ccccc1F)C(c1ccccc1)c1ccccn1 (configuration not stated) | -30%
 | O=C(c1ccc(F)cc1)C(c1ccccc1)c1ccccn1 (configuration not stated) | -1.3%
0.7 µg | O=C(c1ccccc1I)C(c1ccccc1)c1ccccn1 (configuration not stated) | -77.1%
 | O=C(c1ccc(I)cc1)C(c1ccccc1)c1ccccn1 (configuration not stated) | 0%
0.82 µg | Cc1ccccc1C(=O)C(c1ccccc1)c1ccccn1 (configuration not stated) | -64.9%
 | Cc1cccc(C(=O)C(c2ccccc2)c2ccccn2)c1 (configuration not stated) | 13.2%
 | Cc1ccc(C(=O)C(c2ccccc2)c2ccccn2)cc1 (configuration not stated) | 1.5%
0.29 µg | CC(C)(C)c1ccccc1C(=O)C(c1ccccc1)c1ccccn1 (configuration not stated) | -42%
 | CC(C)(C)c1ccc(C(=O)C(c2ccccc2)c2ccccn2)cc1 (configuration not stated) | 0%
 | COc1ccc(C(=O)C(c2ccccc2)c2ccccn2)cc1 (configuration not stated) | -15.7%
 | COc1ccc(C(=O)C(c2ccccc2)c2ccccn2)cc1OC (configuration not stated) | 6.3%
 | O=C(c1ccc2c(c1)OCO2)C(c1ccccc1)c1ccccn1 (configuration not stated) | 6.3%
 | O=C(c1ccccc1Oc1ccccc1)C(c1ccccc1)c1ccccn1 (configuration not stated) | -15%
 | O=C(c1cccc(OCc2ccccc2)c1)C(c1ccccc1)c1ccccn1 (configuration not stated) | 12.1%
 | O=C(c1ccc(OCc2ccccc2)cc1)C(c1ccccc1)c1ccccn1 (configuration not stated) | 9.3%
 | O=C(c1cccnc1)C(c1ccccc1)c1ccccn1 (configuration not stated) | -2.1%
 | O=C(c1ccc2ccccc2c1)C(c1ccccc1)c1ccccn1 (configuration not stated) | 0%
 | O=C(c1cc(-c2ccccc2)nc2cc(Cl)ccc12)C(c1ccccc1)c1ccccn1 (configuration not stated) | 3.8%
